Assay results published in patent publication US8729122B2, “Pharmaceutical and nutraceutical compositions of abscisic acid” (Valent BioSciences Corporation, priority 2010, dated 2014).
Several values for one entry are separate records, joined by “and”; a condition that tells them apart may be missing. Equal entries are not always repeated.

How the values were obtained:
rats [1] = experiment: 21-day Dermal Toxicity Study, removal of adhesive bandage; type: in vivo; conditions: for Total No. of Removals (adhesive bandage), individual animals: 3 weeks
Procedure: Animals were allocated to dose groups and treated as follows:
Animals were dosed daily by dermal administration, with an exposure period of 6 hours, 7 days/week for a period of 3 weeks.
The lumbar region of the animals was clipped to expose the skin (approximately 6×6 cm) with the test formulation being spread evenly over this area. A dressing of foil gauze and self adhesive bandage was wrapped around the torso to prevent oral ingestion. Following 6 hours of exposure the dressings were removed and the dose area wiped clean with a cloth dampened with distilled water.
During the dosing period it was noted that some animals were able to get the adhesive bandage off during the 6 hour exposure period.

rats [2] = experiment: Two Generation Reproduction Toxicity Study (dietary S-ABA); type: in vivo
Procedure: Two Generation Reproduction Toxicity Study
This study was conducted to determine the potential adverse effects of the test substance on reproduction in a 2-generation study. This included determining the effects of the test substance on male and female reproductive processes, including gonadal function, estrous cyclicity, mating behavior, conception, gestation, parturition, lactation, weaning, and on growth and development of the offspring. A minimum of 1 litter was produced in each generation.
Three groups of male and female were offered S-ABA, continuously in the diet for at least 70 consecutive days prior to mating. Target tests substance concentrations were 10,000, 15,000, and 20,000 ppm for the F0 and F1 generations. A concurrent control group of 30 rats/sex was offered the basal diet continuously throughout the study. F0 animals were approximately 7 weeks of age at the initiation of test diet administration. The test diet was administered to the offspring selected to become the F1 generation following weaning. The F0 and F1 males continued to receive the test substance throughout mating and continuing through the day prior to euthanasia. The F0 and F1 females continued to receive the test substance throughout mating, gestation, and lactation, and through the day of euthanasia. For both generations (F1 and F2), 8 pups per litter (4 per sex, when possible) were selected to reduce the variability among the litters. Offspring (30/sex/group, if possible) from the pairing of the F0 animals were selected to constitute the F1 generation.
All animals were observed twice daily for appearance and behavior. Clinical observations, body weights, and food consumption were recorded at appropriate intervals for males throughout the study and for females prior to mating and during gestation and lactation. All F0 and F1 females were allowed to deliver and rear their pups until weaning on lactation day 21. Clinical observations, body weights, and sexes for F1 and F2 pups were recorded at appropriate intervals. Nonselected F1 pups and all surviving F2 pups were necropsied. Selected organs were weighed from 1 pup/sex/litter from F1 and F2 pups that were necropsied. Each surviving F0 and F1 parental animal received a complete detailed gross necropsy following the completion of weaning of the F1 and F2 pups, respectively; selected organs were weighed. Spermatogenic endpoints were recorded for all F0 and F1 males, and ovarian primordial follicle counts were recorded for all F0 and F1 females in the control and high-exposure groups and all F0 and F1 females suspected of reduced fertility. Designated tissues from all F0 and F1 parental animals were examined microscopically.

CC1=CC(=O)CC(C)(C)[C@@]1(O)/C=C/C(C)=C\C(=O)O [S-ABA, (S)-(+)-abscisic acid]
ability to remove the adhesive bandage (rats [1]; female rats in the treatment group): much better at removing the adhesive bandage
Total No. of Removals (adhesive bandage), individual animals (rats [1]; group 2F, females, 100 mg/kg/day dermal, 100 mg/kg/day): 4 and 1
Total No. of Removals (adhesive bandage), individual animals (rats [1]; group 2M, males, 100 mg/kg/day dermal): 1
Total No. of Removals (adhesive bandage), individual animals (rats [1]; group 3F, females, 300 mg/kg/day dermal, 300 mg/kg/day): 2 and 3
Total No. of Removals (adhesive bandage), individual animals (rats [1]; group 4F, females, 1000 mg/kg/day dermal, 1000 mg/kg/day): 3 and 7 and 6
Total No. of Removals (adhesive bandage), individual animals (rats [1]; group 4M, males, 1000 mg/kg/day dermal): 1
SPERM PRODUCTION RATE, mean (rats [2]; 10,000 PPM): 10.3 MILLIONS/GRAM/DAY
Mean Live Offspring Born (per litter) (rats [2]; 10,000 ppm): 12.3
Offspring Born (rats [2]; 10,000 ppm): 322
Offspring FOUND DEAD (rats [2]; 10,000 ppm): 4
POSTNATAL SURVIVAL, BIRTH-4 (PRE-SELECT), mean (rats [2]; 10,000 ppm): 98.6 % PER LITTER
POSTNATAL SURVIVAL, POSTNATAL DAY 0 (RELATIVE TO # BORN), mean (rats [2]; 10,000 ppm): 99.7 % PER LITTER
POSTNATAL SURVIVAL, POSTNATAL DAY 0-1, mean (rats [2]; 10,000 ppm): 100.0 % PER LITTER
POSTNATAL SURVIVAL, POSTNATAL DAY 1-4 (PRE-SELECTION), mean (rats [2]; 10,000 ppm): 98.9 % PER LITTER
POSTNATAL SURVIVAL, POSTNATAL DAY 4 (POST-SELECT)-21, mean (rats [2]; 10,000 ppm): 99.5 % PER LITTER
POSTNATAL SURVIVAL, POSTNATAL DAY 4 (POST-SELECTION)-7, mean (rats [2]; 10,000 ppm): 99.5 % PER LITTER
POSTNATAL SURVIVAL, POSTNATAL DAY 7-14, mean (rats [2]; 10,000 ppm): 100.0 % PER LITTER
POSTNATAL SURVIVAL, POSTNATAL DAY 14-21, mean (rats [2]; 10,000 ppm): 100.0 % PER LITTER
OFFSPRING WEIGHT, mean (rats [2]; 10,000 ppm, female, postnatal day 1): 6.6 grams
OFFSPRING WEIGHT, mean (rats [2]; 10,000 ppm, female, postnatal day 4): 9.1 grams
OFFSPRING WEIGHT, mean (rats [2]; 10,000 ppm, female, postnatal day 7): 14.3 grams
OFFSPRING WEIGHT, mean (rats [2]; 10,000 ppm, female, postnatal day 14): 29.9 grams
OFFSPRING WEIGHT, mean (rats [2]; 10,000 ppm, female, postnatal day 21): 45.5 grams
OFFSPRING WEIGHT, mean (rats [2]; 10,000 ppm, male, postnatal day 1): 7.1 grams
OFFSPRING WEIGHT, mean (rats [2]; 10,000 ppm, male, postnatal day 4): 9.7 grams
OFFSPRING WEIGHT, mean (rats [2]; 10,000 ppm, male, postnatal day 7): 15.2 grams
OFFSPRING WEIGHT, mean (rats [2]; 10,000 ppm, male, postnatal day 14): 30.9 grams
OFFSPRING WEIGHT, mean (rats [2]; 10,000 ppm, male, postnatal day 21): 47.9 grams
offspring mortality (rats [2]; 10,000 ppm, control 4.57%): 1.24%
SPERM PRODUCTION RATE, mean (rats [2]; 15,000 PPM): 10.7 MILLIONS/GRAM/DAY
Mean Live Offspring Born (per litter) (rats [2]; 15,000 ppm): 13.1
Offspring Born (rats [2]; 15,000 ppm): 375
Offspring FOUND DEAD (rats [2]; 15,000 ppm): 15
POSTNATAL SURVIVAL, BIRTH-4 (PRE-SELECT), mean (rats [2]; 15,000 ppm): 93.2 % PER LITTER
POSTNATAL SURVIVAL, POSTNATAL DAY 0 (RELATIVE TO # BORN), mean (rats [2]; 15,000 ppm): 96.1 % PER LITTER
POSTNATAL SURVIVAL, POSTNATAL DAY 0-1, mean (rats [2]; 15,000 ppm): 98.5 % PER LITTER
POSTNATAL SURVIVAL, POSTNATAL DAY 1-4 (PRE-SELECTION), mean (rats [2]; 15,000 ppm): 98.5 % PER LITTER
POSTNATAL SURVIVAL, POSTNATAL DAY 4 (POST-SELECT)-21, mean (rats [2]; 15,000 ppm): 98.2 % PER LITTER
POSTNATAL SURVIVAL, POSTNATAL DAY 4 (POST-SELECTION)-7, mean (rats [2]; 15,000 ppm): 99.6 % PER LITTER
POSTNATAL SURVIVAL, POSTNATAL DAY 7-14, mean (rats [2]; 15,000 ppm): 98.7 % PER LITTER
POSTNATAL SURVIVAL, POSTNATAL DAY 14-21, mean (rats [2]; 15,000 ppm): 100.0 % PER LITTER
OFFSPRING WEIGHT, mean (rats [2]; 15,000 ppm, female, postnatal day 1): 6.6 grams
OFFSPRING WEIGHT, mean (rats [2]; 15,000 ppm, female, postnatal day 4): 8.8 grams
OFFSPRING WEIGHT, mean (rats [2]; 15,000 ppm, female, postnatal day 7): 14.0 grams
OFFSPRING WEIGHT, mean (rats [2]; 15,000 ppm, female, postnatal day 14): 29.8 grams
OFFSPRING WEIGHT, mean (rats [2]; 15,000 ppm, female, postnatal day 21): 45.8 grams
